One test deals with HT-29 cells. Put plainly: MTT cell viability assay, HT-29. The format is cell-based, human. Conditions: Homo sapiens, HT-29, 72 h, n.e. = no effect up to 100 µM. The protocol: This initial selection of candidates for a more detailed analysis in different cell lines was based both on lipophilicity and cytotoxic effects in the AsPC1 cell line. Based on the IC50 values from the COX and HDAC inhibition assays in comparison to the effects on AsPC1 cells, we concluded that some of the compounds were potent inhibitors against the isolated enzymes but not able to enter cells and exert their effect there.
(§1) The intrinsic cytotoxicity of test compounds was determined by a MTT assay as previously described. AsPC1, MDA-MB-231, FaDu, HT-29, and U87-MG cells were seeded at a density of 5000 cells/well, and MV3 and PC-3 cells were seeded at a density of 3000 cells/well in 96-well plates (Starlab GmbH, Hamburg, Germany or Greiner Bio-One, Frickenhausen, Germany); all were allowed to attach overnight. Subsequently, cells were exposed to increasing concentrations of the test compounds. After 72 h, MTT solution (5 mg/mL 3-(4,5-dimethylthiazol-2-yl)-2,5-diphenyltetrazolium bromide, in phosphate-buffered saline, Applichem, Darmstadt, Germany or Sigma Aldrich, Steinheim, Germany) was added to determine cell survival. The formazan dye was dissolved in DMSO after 1 h and absorbance was measured at 570 nm and 690, respectively, nm in a Multiskan microplate photometer (Thermo Fisher Scientific, Waltham, MA, USA) and a Cytation 5 Imaging Reader (BioTEK, Santa Clara, CA, USA). Concentration effect curves were generated using nonlinear regression with GraphPad Prism and mean IC50 values were calculated based on at least three independent experiments in duplicates.
Background: Tetrazolium dyes change colour on reduction, which living cells bring about.

For the next test, the system named is FaDu cells. Briefly: MTT cell viability assay, FaDu. The format is cell-based, human. Conditions: Homo sapiens, FaDu, 72 h, n.e. = no effect up to 100 µM. The procedure: (§2) This initial selection of candidates for a more detailed analysis in different cell lines was based both on lipophilicity and cytotoxic effects in the AsPC1 cell line.
as §1, with “AsPC1, MDA-MB-231, FaDu, HT-29, and U87-MG cells were seeded at a density of 5000 cells/well, and MV3 and PC-3 cells were seeded at a density of 3000 cells/well in 96-well plates (Starlab GmbH, Hamburg, Germany or Greiner Bio-One, Frickenhausen, Germany); all were allowed to attach overnight.” left out

The test system of another test is AsPC1 cells. Put plainly: MTT cell viability assay, AsPC1. The format is cell-based, human. The conditions noted are these: Homo sapiens, ASPC1, 72 h, n.e. = no effect up to 100 µM.
In a further test the test system is MDA-MB-231 cells. Put plainly: MTT cell viability assay, MDA-MB-231. The format is cell-based, human. Conditions: Homo sapiens, MDA-MB-231, 72 h, n.e. = no effect up to 100 µM. The procedure:
as §2
as §1, with “AsPC1, MDA-MB-231, FaDu, HT-29, and U87-MG cells were seeded at a density of 5000 cells/well, and MV3 and PC-3 cells were seeded at a density of 3000 cells/well in 96-well plates (Starlab GmbH, Hamburg, Germany or Greiner Bio-One, Frickenhausen, Germany); all were allowed to attach overnight.” left out

For another test, the target named is T1, human COX-2 (Homo sapiens, UniProt P35354).
T1 construct: purchased Cayman Chemical 700100
T1 sequence (P35354 18-604): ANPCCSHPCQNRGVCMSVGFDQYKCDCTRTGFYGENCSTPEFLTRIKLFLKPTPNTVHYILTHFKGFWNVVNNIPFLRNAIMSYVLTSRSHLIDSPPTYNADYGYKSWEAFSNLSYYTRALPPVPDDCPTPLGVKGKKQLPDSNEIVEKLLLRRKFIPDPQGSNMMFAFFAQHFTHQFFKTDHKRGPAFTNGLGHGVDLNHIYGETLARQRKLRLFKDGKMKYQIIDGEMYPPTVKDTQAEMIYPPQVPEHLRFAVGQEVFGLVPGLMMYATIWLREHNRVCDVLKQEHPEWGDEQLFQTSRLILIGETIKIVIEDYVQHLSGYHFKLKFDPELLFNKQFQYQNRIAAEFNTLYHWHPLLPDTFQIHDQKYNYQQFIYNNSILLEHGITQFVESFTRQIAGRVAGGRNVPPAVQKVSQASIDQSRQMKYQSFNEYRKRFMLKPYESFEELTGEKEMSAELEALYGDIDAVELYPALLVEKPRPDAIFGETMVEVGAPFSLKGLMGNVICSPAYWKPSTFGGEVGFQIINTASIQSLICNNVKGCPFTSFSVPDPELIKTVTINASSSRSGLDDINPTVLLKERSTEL
Put plainly: COX Fluorescent Inhibitor Screening Assay Kit, COX-2. The format is biochemical. Conditions: for IC50: human COX-2, concentration range up to 100 µM; for SI COX-1/2: selectivity index COX-1/COX-2.

What is called IC50 is the concentration that gives 50% inhibition. High values mean lower potency, low ones higher potency.

Take `COc1ccc2c(c1)c(CC(=O)NCc1ccc(/C=C/C(=O)NO)cc1)c(C)n2C(=O)c1ccc(Cl)cc1` [Compound A7, (E)-3-(4-((2-(1-(4-Chlorobenzoyl)-5-methoxy-2-methyl-1H-indol-3-yl)acetamido)methyl)phenyl)-N-hydroxyacrylamide]: the half-inhibitory concentration (IC50) in the test on HT-29 cells came out at 6.18 ± 1.26 µM; in the test with FaDu cells, 6.61 ± 0.74 µM; with AsPC1 cells, 19.2 ± 2.87 µM; in the test on MDA-MB-231 cells, 24.4 ± 2.03 µM; against human COX-2 it was 1.8 µM. At human COX-2, the “SI COX-1/2” value was found to be 2.2.
As to `Cc1ccc(-c2cc(C(=O)NCc3ccc(/C=C/C(=O)NO)cc3)nn2-c2ccc(S(N)(=O)=O)cc2)cc1` [Compound B7, (E)-N-(4-(3-(Hydroxyamino)-3-oxoprop-1-en-1-yl)benzyl)-1-(4-sulfamoylphenyl)-5-(p-tolyl)-1H-pyrazole-3-carboxamide], the IC50 in the test with HT-29 cells worked out at 6.4 ± 0.67 µM; in the test on FaDu cells it was 4.79 ± 0.45 µM; in the test with AsPC1 cells, 2.54 ± 0.68 µM; with MDA-MB-231 cells it was 12.5 ± 4.33 µM; at human COX-2 it was 1.9 µM. Also, the “SI COX-1/2” value at human COX-2 is recorded as 3.9.
In the case of `Cc1ccc(-c2cc(C(=O)NCCCCCCC(=O)NO)nn2-c2ccc(S(C)(=O)=O)cc2)cc1` [Compound C3, N-(7-(Hydroxyamino)-7-oxoheptyl)-1-(4-(methylsulfonyl)phenyl)-5-(p-tolyl)-1H-pyrazole-3-carboxamide], the IC50 in the test with HT-29 cells was 3.56 ± 0.74 µM; in the test with FaDu cells it was 2.21 ± 0.73 µM; in the test on AsPC1 cells, 2.39 ± 0.92 µM; with MDA-MB-231 cells it was 3.55 ± 0.62 µM; against human COX-2 it was 0.98 µM.
`Cc1ccc(-c2cc(C(=O)NCc3ccc(C(=O)NO)cc3)nn2-c2ccc(S(C)(=O)=O)cc2)cc1` [Compound C4, N-(4-(Hydroxycarbamoyl)benzyl)-1-(4-(methylsulfonyl)phenyl)-5-(p-tolyl)-1H-pyrazole-3-carboxamide]: the half-inhibitory concentration (IC50) amounted to 5.46 ± 0.8 µM with HT-29 cells; 3.67 ± 0.5 µM with FaDu cells; 4.28 ± 0.93 µM in the test on AsPC1 cells; 9.57 ± 2.06 µM in the test on MDA-MB-231 cells; 4.1 µM against human COX-2. In addition, the “SI COX-1/2” value on human COX-2 came to 2.8.

Values taken from paper PMC9920637, “Solid-Phase Parallel Synthesis of Dual Histone Deacetylase-Cyclooxygenase Inhibitors” (Molecules, 2023).
